Results from patent US6342508B1, “N-hydroxy-2-(Alkyl,Aryl or Heteroaryl sulfanyl, sulfinyl or sulfonyl) 3-substituted alkyl, aryl or heteroarylamides as matrix metalloproteinase inhibitors” (American Cyanamid Company, priority 1997, dated 2002).
Like-named read-outs stand apart in the source and are kept apart here. Each block holds one compound with its values, some of them ahead of it.

Tests used:
MMP 1 = target: T1, MMP 1 (Homo sapiens, UniProt P03956); experiment: In Vitro Collagenase Assay (human recombinant fibroblast collagenase, fluorogenic peptide substrate); type: biochemical; conditions: for IC50: read-out: MMP 1 IC 50
T1 construct: human recombinant fibroblast collagenase (truncated mw=18,828, WAR, Radnor)
T1 sequence (P03956 100-269 limits assumed): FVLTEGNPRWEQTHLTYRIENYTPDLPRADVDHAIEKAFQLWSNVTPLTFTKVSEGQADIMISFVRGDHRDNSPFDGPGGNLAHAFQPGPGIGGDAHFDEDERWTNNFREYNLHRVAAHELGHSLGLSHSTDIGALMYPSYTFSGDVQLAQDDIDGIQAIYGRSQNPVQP
Protocol: The assay is based on the cleavage of a peptide substrate ((Dnp-Pro-Cha-Gly-Cys(Me)-His-Ala-Lys(NMa)-NH2), Peptide International Inc.) by collagenase releasing the fluorescent NMa group which is quantitated on the fluorometer. Dnp quenches the NMa fluorescence in the intact substrate. […] Substrate is dissolved in methanol and stored frozen in 1 mM aliquots. […] For the assay, substrate is dissolved in HCBC buffer to a final concentration of 10 μM and collagenase to a final concentration of 5 nM. Compounds are dissolved in methanol, DMSO, or HCBC. The methanol and DMSO are diluted in HCBC to <1.0%. Compounds are added to the 96 well plate containing enzyme and the reaction is started by the addition of substrate.
The slope of the line is calculated and represents the reaction rate.
The mean (x±sem) of the control rate is calculated and compared for statistical significance (p<0.05) with drug-related rates using Dunnett's multiple comparison test.

MMP 13 [1] = target: T2, MMP 13 (Homo sapiens, UniProt P45452); experiment: MMP 13 inhibition (standard/manual test); type: biochemical
MMP 9 = target: T3, MMP 9 (Homo sapiens, UniProt P14780); experiment: In Vitro Gelatinase Assay (human neutrophil gelatinase B, thiopeptide substrate/DTNB); type: biochemical
T3 construct: from tissue; host or cells: human neutrophils
Protocol: The assay is based on the cleavage of the thiopeptide substrate ((Ac-Pro-Leu-Gly(2 Mercapto-4 methyl-pentanoyl)-Leu-Gly-OEt), Bachem Bioscience) by the enzyme, gelatinase, releasing the substrate product which reacts colorimetrically with DTNB ((5,5′-dithio-bis(2-nitro-benzoic acid)). The enzyne activity is measured by the rate of the color increase. The thiopeptide substrate is made up fresh as a 20 mM stock in 100% DMSO and the DTNB is dissolved in 100% DMSO as a 100 mM stock and stored in dark at room temperature. Both the substrate and DTNB are diluted together to 1 mM with substrate buffer (50 mM HEPES pH 7.5, 5 mM CaCl2) before use.
The increase in OD405 is plotted and the slope of the line is calculated which represents the reaction rate.
The mean (x±sem) of the control rate is calculated and compared for statistical significance (p<0.05) with drug-treated rates using Dunnett's multiple comparison test.

TACE = target: T4, TACE (Homo sapiens, UniProt P78536); experiment: Procedure for Measuring TACE Inhibition (fluorescent peptidyl substrate); type: biochemical; conditions: for IC50: read-out: TACE IC 50; for inhibition at 1 µM: read-out: TACE % inhibition at 1 micromolar
T4 construct: purchased Immunex
Protocol: Using 96-well black microtiter plates, each well recieves a solution composed of 10 μL TACE (Immunex, final concentration 1 μg/mL), 70 μL Tris buffer, pH 7.4 containing 10% glycerol (final concentration 10 mM), and 10 μL of test compound solution in DMSO (final concentration, DMSO concentration <1%) and incubated for 10 minutes at room temperature. The reaction is initiated by addition of a fluorescent peptidyl substrate (final concentration 100 μM) to each well and then shaking on a shaker for 5 sec. The reaction is read (excitation 340 nm, emission 420 nm) for 10 min. and the increase in fluorescence over time is plotted as a linear line. The slope of the line is calculated and represents the reaction rate. […] The mean (x±sem) of the control rate is calculated and compared for statistical significance (p<0.05) with drug-treated rates using Dunnett's multiple comparison test.

MMP 13 [2] = target: T2, MMP 13; experiment: MMP 13 inhibition (HTS); type: biochemical

T4 sequence (P78536 215-824): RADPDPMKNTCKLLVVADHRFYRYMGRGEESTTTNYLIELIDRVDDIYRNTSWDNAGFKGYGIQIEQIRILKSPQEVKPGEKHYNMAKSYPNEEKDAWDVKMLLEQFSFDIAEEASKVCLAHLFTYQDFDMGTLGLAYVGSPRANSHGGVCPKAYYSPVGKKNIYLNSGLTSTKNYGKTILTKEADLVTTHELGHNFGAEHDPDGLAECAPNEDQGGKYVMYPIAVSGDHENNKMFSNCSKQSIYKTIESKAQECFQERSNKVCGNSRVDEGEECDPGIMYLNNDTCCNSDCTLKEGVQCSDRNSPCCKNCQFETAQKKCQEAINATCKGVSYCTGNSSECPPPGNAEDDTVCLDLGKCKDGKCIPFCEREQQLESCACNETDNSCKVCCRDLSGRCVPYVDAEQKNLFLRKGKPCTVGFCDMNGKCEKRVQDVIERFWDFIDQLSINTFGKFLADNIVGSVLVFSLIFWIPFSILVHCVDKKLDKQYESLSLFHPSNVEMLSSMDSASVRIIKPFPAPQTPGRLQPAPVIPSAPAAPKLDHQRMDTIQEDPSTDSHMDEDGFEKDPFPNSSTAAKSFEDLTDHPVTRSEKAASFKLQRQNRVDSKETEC
T3 sequence (P14780 94-707): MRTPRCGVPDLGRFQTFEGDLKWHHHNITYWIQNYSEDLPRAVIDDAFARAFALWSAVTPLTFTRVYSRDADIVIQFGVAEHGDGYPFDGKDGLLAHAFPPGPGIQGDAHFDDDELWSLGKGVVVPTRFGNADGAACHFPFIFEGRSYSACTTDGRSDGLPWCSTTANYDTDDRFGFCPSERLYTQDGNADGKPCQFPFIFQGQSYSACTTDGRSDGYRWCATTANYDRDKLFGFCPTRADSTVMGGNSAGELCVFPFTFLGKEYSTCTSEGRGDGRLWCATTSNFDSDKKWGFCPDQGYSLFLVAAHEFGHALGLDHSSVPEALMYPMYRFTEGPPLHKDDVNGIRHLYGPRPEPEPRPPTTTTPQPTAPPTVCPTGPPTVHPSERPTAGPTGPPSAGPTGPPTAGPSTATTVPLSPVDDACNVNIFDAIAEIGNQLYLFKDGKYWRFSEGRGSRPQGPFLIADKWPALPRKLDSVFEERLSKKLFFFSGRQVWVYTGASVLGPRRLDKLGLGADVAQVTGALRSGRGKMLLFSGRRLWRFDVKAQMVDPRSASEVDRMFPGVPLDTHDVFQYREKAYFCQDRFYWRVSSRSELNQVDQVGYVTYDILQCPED

Compound: 2-(4-Methoxy-benzenesulfonyl)-4methyl-2-pyridin-ylmethyl-pentanoic acid hydroxyamide [Example 66]
- IC50 (MMP 1): 1600 nM
- IC50 (MMP 13 [1]; read-out: MMP 13 IC 50): 226 nM
- IC50 (MMP 9; read-out: MMP 9 IC 50): 131 nM
- TACE % inhibition at 1 micromolar (TACE): 42.33%

- IC50 (MMP 1): 2040 nM
- IC50 (MMP 13 [1]; read-out: MMP 13 IC 50): 43.9 nM
- IC50 (MMP 9; read-out: MMP 9 IC 50): 231 nM
- IC50 (TACE): 27.1 nM
Compound: CCCCC[C@H](C(=O)NO)[S@+]([O-])c1ccc(OC)cc1 (relative stereo) [Example 81a, 2R*-(4-methoxyphenyl-S*-sulfinyl)-heptanoic acid hydroxyamide]

- melting point: 135 °C
- IC50 (MMP 13 [1]; read-out: MMP 13 IC 50): 308 nM
- IC50 (MMP 9; read-out: MMP 9 IC 50): 346 nM
Compound: COc1ccc([S+]([O-])C(C(=O)NO)c2ccccc2)cc1 (stereo not shown) [Example 8, N-Hydroxy-2-(4-methoxy-benzenesulfinyl)-2-phenyl-acetamide]

- IC50 (MMP 1): 239 nM
- IC50 (MMP 13 [1]; read-out: MMP 13 IC 50): 14 nM
- IC50 (MMP 9; read-out: MMP 9 IC 50): 11 nM
- IC50 (TACE): 626 nM
Compound: COc1ccc(S(=O)(=O)C(C)(CC=C(C)C)C(=O)NO)cc1 (stereo not shown) [Example 13, 2-(4-Methoxy-benzenesulfonyl)-2-dimethyl-hex-4-enoic acid hydroxyamide]

- IC50 (MMP 1): 239 nM
- IC50 (MMP 9; read-out: MMP 9 IC 50): 8.9 nM
- TACE % inhibition at 1 micromolar (TACE): 41.00%
Compound: COc1ccc(S(=O)(=O)C(C)(Cc2ccc(OCCN3CCCCC3)cc2)C(=O)NO)cc1 (stereo not shown) [Example 17, N-Hydroxy-2-(4-methoxy-benzenesulfonyl)-2-methyl-3-[4-(2-piperidin-1-yl-ethoxy)-phenyl]-proponamide]

- IC50 (MMP 1): 318 nM
- IC50 (MMP 13 [1]; read-out: MMP 13 IC 50): 15.3 nM
- IC50 (MMP 9; read-out: MMP 9 IC 50): 13.2 nM
- inhibition at 1 µM (TACE): 39%
Compound: CCN(CC)CCOc1ccc(CC(C)(C(=O)NO)S(=O)(=O)c2ccc(OC)cc2)cc1 (stereo not shown) [Example 21, N-Hydroxy-2-(4-methoxy-benzenesulfonyl)-2-methyl-3-[4-(2-N,N-diethylamino-ethoxy)-phenyl]-propionamide]

- IC50 (MMP 13 [1]; read-out: MMP 13 IC 50): 8 nM
- IC50 (MMP 9; read-out: MMP 9 IC 50): 26.7 nM
Compound: CCOc1ccc(S(=O)(=O)C(C)(Cc2ccc(OCCN(CC)CC)cc2)C(=O)NO)cc1 (stereo not shown) [Example 25, N-Hydroxy-2-(4-ethoxy-benzenesulfonyl)-2-methyl-3-[4-(2-N,N-diethylamino-ethoxy)-phenyl]-propionamide]

- IC50 (MMP 1): 297 nM
- IC50 (MMP 13 [1]; read-out: MMP 13 IC 50): 3.6 nM
- IC50 (MMP 9; read-out: MMP 9 IC 50): 4.3 nM
- TACE % inhibition at 1 micromolar (TACE): 41%
Compound: CCN(CC)CCOc1cccc(CC(C)(C(=O)NO)S(=O)(=O)c2ccc(OC)cc2)c1 (stereo not shown) [Example 29, N-Hydroxy-2-(4-methoxy-benzenesulfonyl)-2-methyl-3-[3-(2-N,N-diethylamino-ethoxy)-phenyl]-propionamide]

- IC50 (MMP 1): 456 nM
- IC50 (MMP 13 [1]; read-out: MMP 13 IC 50): 48.2 nM
- IC50 (MMP 9; read-out: MMP 9 IC 50): 234 nM
Compound: CCCC(Cc1ccc(OCCN2CCOCC2)cc1)(C(=O)NO)S(=O)(=O)c1ccc(OC)cc1 (stereo not shown) [Example 35, 2-(4-Methoxy-benzenesulfonyl)-2-[4-(2-morpholin4yl-oxy)-benzyl]-pentanoic acid hydroxyamide]

- MMP 1 % inhibition at 1 micromolar (MMP 1): 9%
- MMP 13 % inhibition at 1 micromolar (MMP 13 [1]): 14.3%
- MMP 9 % inhibition at 1 micromolar (MMP 9): 31.6%
- IC50 (TACE): 87 nM
Compound: CCCCCCC(Sc1ccc(OC)cc1)C(=O)NO (stereo not shown) [Example 37, 2-(4-Methoxy-benzenesulfanyl)-octanoic acid hydroxyamide]

- IC50 (MMP 1): 100 nM
- melting point: 58 to 59 °C
- inhibition at 1 µM (TACE): 15.5%
Compound: COc1ccc(CS(=O)(=O)C(C)(Cc2ccccc2)C(=O)NO)cc1 (stereo not shown) [Example 41, N-Hydroxy-2-(4-methoxy-phenylmethanesulfonyl)-2-methyl-3-phenyl propionic acid hydroxamide]

- MMP 1 % inhibition at 1 micromolar (MMP 1): 49%
- MMP 9 % inhibition at 1 micromolar (MMP 9): 48.6%
- TACE % inhibition at 1 micromolar (TACE): 20.4%
Compound: CC(Cc1ccc(OCCN2CCCCC2)cc1)(C(=O)NO)S(=O)(=O)c1cccs1 (stereo not shown) [Example 45, 2-Methyl-3-4-(2-piperdin-1-yl-ethoxy)-phenyl-2-(thiophene-2-sulfonyl)-propionic acid hydroxamide]

- MMP 1 % inhibition at 1 micromolar (MMP 1): 99.1%
- MMP 9 % inhibition at 1 micromolar (MMP 9): 79.1%
- TACE % inhibition at 1 micromolar (TACE): 51.1%
Compound: CC(Cc1ccccc1)(C(=O)NO)S(=O)(=O)c1cccs1 (stereo not shown) [Example 48, 2-Methyl-3-phenyl-2-(thiophene-2-sulfonyl)-propionic acid hydroxamide]

- MMP 1 % inhibition at 1 micromolar (MMP 1): 10.1%
- MMP 13 % inhibition at 1 micromolar (MMP 13 [1]): 54.6%
- MMP 9 % inhibition at 1 micromolar (MMP 9): 23.7%
Compound: CC(C(=O)O)S(=O)(=O)CCCCCCCCS(=O)(=O)C(C)C(=O)NO (stereo not shown) [Example 49, 2-[8-(1-carboxy-ethanesfonyl)-octane-1-sulfonyl]-propionic acid hydroxyamide]

- IC50 (MMP 1): 51.1 nM
- IC50 (MMP 13 [1]; read-out: MMP 13 IC 50): 10.6 nM
- IC50 (MMP 9; read-out: MMP 9 IC 50): 58.4 nM
Compound: CC(Cc1ccc(OCCN2CCCCC2)cc1)(C(=O)NO)S(=O)(=O)c1ccc(Br)cc1 (stereo not shown) [Example 50, 2-(4Bromo-benzenesulfonyl)-2-methyl-3-[4-(2-piperdine-1-yl-ethoxy)-phenyl]-propionic acid hydroxanide]

- IC50 (MMP 1): 368 nM
- melting point: 168 to 170 °C
- IC50 (MMP 9; read-out: MMP 9 IC 50): 5 nM
Compound: COc1ccc(S(=O)(=O)C2(C(=O)NO)CCN(Cc3ccc4ccccc4c3)CC2)cc1 [Example 87, 4-(4methoxy-benzene-sulfonyl)-1-napthalene-2-yl-methylpiperidine-4-carboxylic acid hydroxamide]

Compound: COc1ccc(S(=O)(=O)C2(C(=O)NO)CCN(Cc3ccc(-c4ccccc4)cc3)CC2)cc1 [Example 88, 1-Biphenyl-4-ylmethyl-4-(4-methoxy-benzenesulfonyl)-piperidine-4-carboxylic acid hydroxamide]
- IC50 (MMP 1): 1330 nM
- IC50 (MMP 9; read-out: MMP 9 IC 50): 12.8 nM

- inhibition at 0.2 µM (MMP 13 [2]; read-out: MMP 13 % inhibition at 0.2 μM (HTS), 0.2 μM): 91%
- IC50 (MMP 13 [1]; manual, nM): 255 nM
- IC50 (MMP 9; solid phase compounds table, read-out: MMP 9): 213 nM
Compound: CC(=O)Nc1ccc(SC(Cc2ccccc2)C(=O)NO)cc1 (stereo not shown) [Example 128, 2-(4-Acetylamino-benzenesulfanyl)-N-hydroxy-3-phenyl-propionamide]

- MMP 13 % inhibition at 36 nM (HTS) (MMP 13 [2]): 34%
- TACE % inhibition at 1 mM (TACE): 29.4%
Compound: CCCCCCC(Sc1nc(-c2ccccc2)cs1)C(=O)NO (stereo not shown) [Example 172, 2-(4-Phenyl-thiazole-2-sulfanyl)-octanoic acid hydroxyamide]

- MMP 13 % inhibition at 36 nM (HTS) (MMP 13 [2]): 33%
- TACE % inhibition at 1 mM (TACE): 19.8%
Compound: CCCCCCC(Sc1ccc(NS(=O)(=O)c2cc(Cl)sc2Cl)cc1)C(=O)NO (stereo not shown) [Example 233]

- MMP 13 % inhibition at 36 nM (HTS) (MMP 13 [2]): 59%
- TACE % inhibition at 1 mM (TACE): 48.3%
Compound: CCCCCCC(C(=O)NO)[S+]([O-])c1ccc(NS(=O)(=O)c2c(C)nn(C)c2Cl)cc1 (stereo not shown) [Example 235, 5-Chloro-1,3-dimethyl-1H-pyrazole-4-sulfonic acid 4-(1-hydroxycarbamoyl-heptylsulfinyl)-hydroxyamide]

- MMP 13 % inhibition at 36 nM (HTS) (MMP 13 [2]): 55%
- TACE % inhibition at 1 mM (TACE): 38.2%
Compound: CCCCCCC(C(=O)NO)[S+]([O-])c1ccc(NS(=O)(=O)c2ccc(-c3ccccn3)s2)cc1 (stereo not shown) [Example 237, 5-Pyridin-2-yl-thiophene-2-sulfonic acid 4(1-hydroxycarbamoyl-heptylsulfinyl)-hydroxy amide]

- MMP 13 % inhibition at 36 nM (HTS) (MMP 13 [2]): 48%
- TACE % inhibition at 1 mM (TACE): 40.3%
Compound: CCCCCCC(C(=O)NO)S(=O)(=O)c1ccc(NS(=O)(=O)c2cccc3nsnc23)cc1 (stereo not shown) [Example 240, Benzo[1,2,5]thiadiazole-4-sulfonic acid 4-(1-hydrxycarbamoyl-heptylsulfonyl)-hydroxyamide]

Compound: N-Hydroxy-3-methyl-2-phenethylsulfinyl-butyramide [Example 117]
- MMP 13 % inhibition at 0.2 μM (HTS) (MMP 13 [2]; 0.2 μM): 7%
- TACE % inhibition at 1 mM (TACE): 8.1%
